Test results taken from patent publication US20030125343A1, “Combinations of receptor tyrosine kinase inhibitor with an a1-acidic glycoprotein binding compound” (priority 1999, published 2003).

Legend:
KU812 leukemic cells = test: In vivo treatment of nude mice injected s.c. with KU812 leukemic cells; set-up: species or system CD1 nu/nu mice
Method: Seven to 9 week-old female CD1 nu/nu mice purchased at Charles River Breedin Laboratories (Calco, Italy) are kept under standard laboratory conditions according to the guidelines of the National Cancer Institutes, Milan, Italy. This study is approved by the institutional ethics committee for laboratory animals used in experimental research. KU812 bcr/abl positive cell line is injected (50×10^6 cells per animal) subcutaneously in the left flank of the animal. Oral treatment is administered through a syringe connected to a soft plastic tube introduced in esophagus (gavage). Tumor weight (TW) and total weight are monitored every 3-4 days. TW is calculated by the formula TW [mg]=(d^2×D), where d and D are the shortest and longest diameters of the tumor, respectively, measured in millimeters. Treatment is started 1-15 days after leukemic cell injection.
Nude mice are injected s.c. with 50 millions KU812 cells. Treatment is initiated after 1, 8 and 15 days respectively (groups I to III), in the presence of approximately, 50, 300 millions and 1 billion leukemic cells. […] To test this hypothesis mice in group II are treated for 11 or 18 days.
Mice are injected with KU812 cells and treatment is started 11 days later in the presence of an approximate tumor load of 400 mg.

bcr/abl = target: T1, bcr/abl (Homo sapiens, UniProt P00519); test: In vitro bcr/abl autophosphorylation in KU812 cells (anti-phosphotyrosine western blot); type: cell-based; settings: erythromycin base 100 μM, STI571 3 μM, AGP 2 mg/ml, 1 hour
T1 construct: Endogenous bcr/abl and tyrosine-phosphorylated bcr/abl are detected with the corresponding mouse monoclonal antibody; BCR N-terminal portion (fusion partner, human BCR P11274); endogenous in cells; host or cells: KU812 (DSMZ ACC 378), in culture or as subcutaneous tumour in CD1 nu/nu mice; the other entry of the earlier key: BCR (P11274, Breakpoint cluster region protein)
T1 sequence (P00519 with tags, fused parts or gaps): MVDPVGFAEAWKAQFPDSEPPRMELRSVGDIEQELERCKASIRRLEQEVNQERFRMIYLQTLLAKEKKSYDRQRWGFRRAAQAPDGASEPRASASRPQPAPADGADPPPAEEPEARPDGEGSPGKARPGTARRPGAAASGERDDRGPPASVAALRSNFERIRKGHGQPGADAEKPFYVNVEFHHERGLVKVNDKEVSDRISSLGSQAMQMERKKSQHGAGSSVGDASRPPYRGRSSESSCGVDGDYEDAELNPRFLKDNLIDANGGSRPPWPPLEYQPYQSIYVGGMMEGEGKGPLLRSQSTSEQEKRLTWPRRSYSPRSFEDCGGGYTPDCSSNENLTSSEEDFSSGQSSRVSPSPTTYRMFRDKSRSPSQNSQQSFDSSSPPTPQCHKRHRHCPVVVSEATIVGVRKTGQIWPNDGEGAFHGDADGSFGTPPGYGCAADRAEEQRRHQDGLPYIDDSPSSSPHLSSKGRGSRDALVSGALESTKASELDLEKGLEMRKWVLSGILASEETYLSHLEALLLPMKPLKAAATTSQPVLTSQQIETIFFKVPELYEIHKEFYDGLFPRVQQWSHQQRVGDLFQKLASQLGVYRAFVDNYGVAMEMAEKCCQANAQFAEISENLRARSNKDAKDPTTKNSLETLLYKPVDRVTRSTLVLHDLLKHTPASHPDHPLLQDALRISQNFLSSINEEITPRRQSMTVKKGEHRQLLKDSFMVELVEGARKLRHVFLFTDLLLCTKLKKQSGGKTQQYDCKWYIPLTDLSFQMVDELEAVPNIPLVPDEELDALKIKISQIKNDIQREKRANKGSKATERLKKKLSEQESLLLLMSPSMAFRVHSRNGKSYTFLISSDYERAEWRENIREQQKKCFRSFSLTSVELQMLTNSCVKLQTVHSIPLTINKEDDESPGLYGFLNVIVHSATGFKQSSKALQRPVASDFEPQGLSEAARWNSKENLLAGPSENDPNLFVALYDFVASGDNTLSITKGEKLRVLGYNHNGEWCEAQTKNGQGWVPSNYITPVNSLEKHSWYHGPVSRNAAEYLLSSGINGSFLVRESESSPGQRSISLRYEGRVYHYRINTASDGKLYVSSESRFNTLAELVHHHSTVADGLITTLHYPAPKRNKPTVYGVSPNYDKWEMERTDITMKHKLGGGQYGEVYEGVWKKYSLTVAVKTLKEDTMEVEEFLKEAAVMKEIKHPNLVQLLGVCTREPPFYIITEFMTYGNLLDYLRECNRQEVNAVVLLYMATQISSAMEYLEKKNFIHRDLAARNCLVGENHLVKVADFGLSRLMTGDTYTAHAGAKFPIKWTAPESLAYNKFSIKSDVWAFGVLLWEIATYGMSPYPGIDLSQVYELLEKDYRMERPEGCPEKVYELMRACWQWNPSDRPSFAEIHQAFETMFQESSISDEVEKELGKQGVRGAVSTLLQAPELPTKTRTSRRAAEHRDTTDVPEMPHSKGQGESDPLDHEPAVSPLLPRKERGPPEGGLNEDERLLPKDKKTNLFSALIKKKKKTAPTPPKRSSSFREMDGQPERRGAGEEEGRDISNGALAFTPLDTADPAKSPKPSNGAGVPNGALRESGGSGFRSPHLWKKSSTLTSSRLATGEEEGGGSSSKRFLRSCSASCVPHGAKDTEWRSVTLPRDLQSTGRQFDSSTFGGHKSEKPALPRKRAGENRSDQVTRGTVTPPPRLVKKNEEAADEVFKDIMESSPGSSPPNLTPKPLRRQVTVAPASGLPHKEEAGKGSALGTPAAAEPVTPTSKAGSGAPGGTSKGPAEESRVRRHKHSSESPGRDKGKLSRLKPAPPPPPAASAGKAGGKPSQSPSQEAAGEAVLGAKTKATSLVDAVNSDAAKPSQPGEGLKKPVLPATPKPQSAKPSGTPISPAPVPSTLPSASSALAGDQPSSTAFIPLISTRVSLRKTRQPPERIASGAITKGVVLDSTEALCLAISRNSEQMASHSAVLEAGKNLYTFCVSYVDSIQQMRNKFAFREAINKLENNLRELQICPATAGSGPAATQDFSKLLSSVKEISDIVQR

KU812 cells = test: Tritiated thymidine uptake in vitro proliferation assay; settings: erythromycin 5 to 30 μM, STI571 1 μM, AGP 1 mg/ml

SMILES | Animals that developed tumor growth, non pretreated mice (KU812 leukemic cells; 160 mg/kg every 8 hours for 11 days starting 24 hours after cell injection) | Cure, group printed as 'group II' (KU812 leukemic cells; 160 mg/kg p.o. every 8 hours for 11 days, sentence follows the group II relapse rate) | Cured animals, controls not pretreated (KU812 leukemic cells; injected with KU812, treated with STI571 24 hours later) | Animals with tumor growth, pretreated mice (KU812 leukemic cells; pretreated with STI571, then 160 mg/kg every 8 hours for 11 days starting 24 hours after injection, p<0.05) | Cured animals, pretreated with STI571 (KU812 leukemic cells; pretreated, injected with KU812, treated 24 hours later, p<0.01 vs controls) | Response of relapsed tumors to re-treatment (KU812 leukemic cells; same 11 day regimen, started when tumors measurable again) | Cure, group I (KU812 leukemic cells; treatment started 1 day after cell injection, 160 mg/kg p.o. every 8 hours for 11 days) | Animals showing disappearance of the tumor / tumor free (KU812 leukemic cells; treatment started 11 days after injection, tumor load about 400 mg, every 8 hours for 18 days) | Number of animals that relapsed (KU812 leukemic cells; treatment started at day 11, 18 days of treatment, relapse between day 25 and 40) [animals] | Animals cured at last day of follow up (day 120) (KU812 leukemic cells; treatment started at day 11, tumor load about 400 mg, 18 days, p<0.01 between groups) | Cure of animals bearing large tumors (KU812 leukemic cells; tumors >400 mg at start of treatment) | Tumor regression, erythromycin alone (KU812 leukemic cells; control groups, erythromycin in methyl cellulose 5%, not shown) | Effect of erythromycin on STI571 block of bcr/abl kinase activity in presence of AGP (bcr/abl) | Effect of erythromycin on AGP-mediated block of STI571 activity on KU812 proliferation (KU812 cells)
Cc1ccc(NC(=O)c2ccc(CN3CCN(C)CC3)cc2)cc1Nc1nccc(-c2cccnc2)n1 [STI571] | 0/14 | no cure is ever observed | 16/16 | 7/14 | 8/16 | respond poorly to the new treatment | reproducibly cured | 5/15 | 4 | 1/13 | no animal was cured | – | – | –
CC[C@H]1OC(=O)[C@H](C)[C@@H](O[C@H]2C[C@@](C)(OC)[C@@H](O)[C@H](C)O2)[C@H](C)[C@@H](O[C@@H]2O[C@H](C)C[C@H](N(C)C)[C@H]2O)[C@](C)(O)C[C@@H](C)C(=O)[C@H](C)[C@@H](O)[C@]1(C)O [erythromycin, Erythromycin] | – | – | – | – | – | – | – | – | – | – | – | do not show any evidence of tumor regression | STI571 activity can be restored | restores sensitivity to STI571 with a clear dose response relationship
